Where two headings read alike, the source gives them in different places.
Legend:
[1] = Human in vivo oral dosage escalation studies: nausea and emesis side-effects; conditions: human, in vivo, immediate-release formulations, human
Protocol: (§1) In Tables 13 and 14, standard deviation values are reported parenthetically. Furthermore, a “Yes” entry means greater than half of the subjects experienced the indicated side-effect, while a “No” entry indicates none, or less than half, of the subjects experienced the indicated side-effect.
(§2) The 3 mg dosages of compound (I) indicated in Tables 13 and 14 comprised the simultaneous administration of three 1 mg tablets of the SCT formulations of the present invention. Likewise, the 30 mg dosages of compound (I) comprised the simultaneous administration of three 10 mg tablets of the SCT formulations of the present invention.
(§3) The OPC immediate-release formulations comprising compound (I) were prepared extemporaneously by diluting powdered sodium citrate with water to a final concentration of 0.02 M and dissolving compound (I) therein with stirring. The prepared solution was then orally administered to the subject.
(§4) Analysis of such data will establish the relationship between the plasma pharmacokinetics and nausea and emesis side-effects in human subjects administered with dosages of compound (I). At Cmax values of less than 60 ng/mL, compound (I) was generally well tolerated. […] Dosages of compound (I) greater than 10 mg in the fasted state, and 30 mg in the fed state, could not be successfully administered due to the severity of the resulting nausea and emesis.
(§5) In some subjects given the 30 mg dosage in the fed state, the peak concentrations were in excess of 250 ng/mL, with the mean being 198 ng/mL. Predicated upon a Cmax threshold of 200 ng/mL for emesis, a much higher incidence of emesis would have been predicted to occur at this dosage.

human subjects = assay: as above; conditions: for dosages that could not be successfully administered due to the severity of nausea and emesis: immediate-release, human
Protocol: as §1, §2, §3, §4, §5

[2] = Dissolution as a function of dissolution media pH; format: physicochemical; conditions: at the lower pH (simulated gastric fluid pH 1.2); sink conditions cannot be maintained
Protocol: In order to determine the amount of compound (I) dissolved in simulated gastric fluid at pH 1.2, the amount remaining in the formulations was assayed and subtracted from the amount initially present. This procedure was employed because, at the lower pH, the solubility of compound (I) is lower and sink conditions cannot be maintained during dissolution. [formula] [formula]

[3] = concluded from the IR formulation data

## C[C@@H](Oc1ccc(CNC(=O)c2cccnc2Oc2ccc3c(c2)OCO3)c(F)c1)C(=O)O [Compound (I), (R)-2-[4-({[2-(Benzo[1,3]dioxol-5-yloxy)-pyridine-3-carbonyl]-amino}-methyl)-3-fluoro-phenoxy]-propionic Acid]
[1]; read-out: threshold for emesis (Cmax)
  Cmax: ~200 ng/mL
[1]; read-out: threshold for nausea (Cmax)
  Cmax: ~60 ng/mL
Human subjects; [3]
  Cmax/Tmax ratio that will maintain a low incidence for emesis: less than 100 ng/ml/hr
  Cmax/Tmax ratio that will maintain a low incidence of nausea: less than 40 ng/ml/hr
Human subjects; fasted state
  dosages that could not be successfully administered due to the severity of nausea and emesis: greater than 10 mg
Human subjects; fed state
  dosages that could not be successfully administered due to the severity of nausea and emesis: > 30 mg
[2]
  solubility of compound (I): lower

From patent US20040076668A1, “Controlled-release pharmaceutical formulations” (Pfizer Inc., priority 2002, published 2004)
